These results are taken from patent US10781181B2, “N-((het) arylmethyl)-heteroaryl-carboxamides compounds as plasma kallikrein inhibitors” (Kalvista Pharmaceuticals Limited, priority 2014, dated 2020).

One data set addresses Human plasma kallikrein (Homo sapiens (Human), UniProt P03952). The data set can be described thus: Determination of the IC50 for plasma kallikrein. Conditions: read-out: IC50 (human PKal). The class given is biochemical. The protocol:
Determination of the IC50 for Plasma Kallikrein
Human plasma kallikrein (Protogen) was incubated at 25° C. with the fluorogenic substrate H-DPro-Phe-Arg-AFC and various concentrations of the test compound. Residual enzyme activity (initial rate of reaction) was determined by measuring the change in […] at 410 nm and the IC50 value for the test compound was determined.

In a further data set the target is Human KLK1 (Homo sapiens (Human), UniProt P06870). The data set can be described thus: Determination of the IC50 for KLK1. It counts as biochemical. Conditions: human KLK1, 25° C., substrate H-DVal-Leu-Arg-AFC. The protocol: Determination of the IC50 for KLK1
Human KLK1, sequence (P06870 25-262): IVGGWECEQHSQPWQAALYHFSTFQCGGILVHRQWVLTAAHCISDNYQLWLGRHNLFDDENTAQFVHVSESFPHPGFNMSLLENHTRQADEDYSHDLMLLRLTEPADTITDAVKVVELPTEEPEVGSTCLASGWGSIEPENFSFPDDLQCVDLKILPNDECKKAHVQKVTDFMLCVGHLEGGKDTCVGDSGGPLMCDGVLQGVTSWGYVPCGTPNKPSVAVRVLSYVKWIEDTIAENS
Human KLK1 (Callbiochem) was incubated at 25° C. with the fluorogenic substrate H-DVal-Leu-Arg-AFC and various concentrations of the test compound. Residual enzyme activity (initial rate of reaction) was determined by measuring the change in […] at 410 nm and the IC50 value for the test compound was determined.

The target in the next data set is Human FXIa (Homo sapiens (Human), UniProt P03951). The data set can be described thus: Determination of the % inhibition for FXIa. It counts as biochemical. Particulars: 40 μM of the test compound, human FXIa, 25° C.; for inhibition at 40 µM: read-out: % Inhibition @ 40 μM (human FXIa). The method, then: Determination of the % Inhibition for FXIa
Human FXIa, sequence (P03951 388-625 limits assumed): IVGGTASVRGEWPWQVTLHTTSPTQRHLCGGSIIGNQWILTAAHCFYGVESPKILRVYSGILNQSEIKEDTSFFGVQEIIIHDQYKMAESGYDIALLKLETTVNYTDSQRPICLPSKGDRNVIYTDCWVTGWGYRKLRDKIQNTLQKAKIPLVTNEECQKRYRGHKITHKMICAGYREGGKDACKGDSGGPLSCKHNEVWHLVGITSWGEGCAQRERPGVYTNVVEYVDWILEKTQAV
Human FXIa, sequence (P03951 19-387 partner limits assumed): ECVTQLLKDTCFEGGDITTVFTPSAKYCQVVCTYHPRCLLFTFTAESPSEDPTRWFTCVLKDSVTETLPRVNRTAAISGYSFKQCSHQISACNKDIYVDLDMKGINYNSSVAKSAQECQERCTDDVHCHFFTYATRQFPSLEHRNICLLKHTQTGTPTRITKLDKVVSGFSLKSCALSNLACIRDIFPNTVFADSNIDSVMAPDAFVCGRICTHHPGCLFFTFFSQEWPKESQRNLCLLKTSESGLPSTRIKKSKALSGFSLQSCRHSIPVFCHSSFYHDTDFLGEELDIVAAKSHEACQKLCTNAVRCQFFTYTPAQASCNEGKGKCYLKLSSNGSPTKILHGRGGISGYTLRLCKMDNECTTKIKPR
Human FXIa (Enzyme Research Laboratories) was incubated at 25° C. with the fluorogenic substrate Z-Gly-Pro-Arg-AFC and 40 μM of the test compound. Residual enzyme activity (initial rate of reaction) was determined by measuring the change in […].

The nature of data set [1]: Pharmacokinetics following a single oral dose in rats. Particulars: rat, male Sprague-Dawley rats, nominal 10 mg/kg in 10% DMSO/10% cremophor/80% SWFI, plasma, actual dose 7.6 mg/kg (Example 115), 8.4 mg/kg (Example 85). It counts as in vivo. The method, then: Pharmacokinetic studies of the compounds in Table 15 were performed to assess the pharmacokinetics following a single oral dose in male Sprague-Dawley rats. Two rats were given a single po dose of 5 mL/kg of a nominal 2 mg/mL (10 mg/kg) composition of test compound in 10% DMSO/10% cremophor/80% SWFI. Following dosing, blood samples were collected over a period of 24 hours. Sample times were 5, 15 and 30 minutes then 1, 2, 4, 6, 8 and 12 hours. Following collection, blood samples were centrifuged and the plasma fraction analysed for concentration of test compound by LCMS.

SMILES strings stand for the structures. Some results are limits rather than exact numbers.

Human plasma kallikrein, sequence (P03952 391-638): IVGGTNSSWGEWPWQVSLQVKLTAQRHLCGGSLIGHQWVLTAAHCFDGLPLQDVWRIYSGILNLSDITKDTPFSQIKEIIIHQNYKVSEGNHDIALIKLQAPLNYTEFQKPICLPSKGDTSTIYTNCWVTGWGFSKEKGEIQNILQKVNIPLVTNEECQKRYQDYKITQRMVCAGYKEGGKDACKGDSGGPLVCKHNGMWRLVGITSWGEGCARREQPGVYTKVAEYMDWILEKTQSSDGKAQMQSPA
Human plasma kallikrein, sequence (P03952 20-390 partner): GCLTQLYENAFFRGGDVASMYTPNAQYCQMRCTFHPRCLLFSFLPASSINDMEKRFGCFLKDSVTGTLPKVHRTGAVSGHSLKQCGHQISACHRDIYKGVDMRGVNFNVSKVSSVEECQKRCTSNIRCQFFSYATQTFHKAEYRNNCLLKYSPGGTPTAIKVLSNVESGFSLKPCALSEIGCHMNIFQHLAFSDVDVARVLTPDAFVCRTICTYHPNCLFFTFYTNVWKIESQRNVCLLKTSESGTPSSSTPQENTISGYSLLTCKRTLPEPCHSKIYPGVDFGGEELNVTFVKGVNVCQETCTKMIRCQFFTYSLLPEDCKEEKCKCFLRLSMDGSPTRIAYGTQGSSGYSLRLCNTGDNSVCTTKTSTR

In the case of `Cc1cccn(Cc2ccc(Cn3cc(C(=O)NCCOc4cccc(Cl)c4)c(N)n3)cc2)c1=O` [Example 85, 3-amino-N-[2-(3-chlorophenoxy)ethyl]-1-({4-[(3-methyl-2-oxopyridin-1-yl)methyl]phenyl}methyl)pyrazole-4-carboxamide], the IC50 (as a rule, the concentration at which inhibition is half-maximal) at Human plasma kallikrein was 0.0035 µM. The compound also returned an IC50 against Human KLK1 of over 40 µM. Also, the inhibition (usually the change of the read-out against control, counted positive when it falls) at 40 µM at Human FXIa was found to be 1%. In addition, in data set [1], the highest level (Cmax) was 228 ng/mL and the Tmax – broadly, the time from dosing to the highest level – is 45 min.
For `C[C@@H](CNC(=O)c1cn(Cc2ccc(Cn3ccccc3=O)cc2)nc1N)Oc1cccc(Cl)c1` [Example 115, 3-Amino-N-[(2S)-2-(3-chlorophenoxy)propyl]-1-({4-[(2-oxopyridin-1-yl)methyl]phenyl}methyl)-pyrazole-4-carboxamide], the half-inhibitory concentration (IC50) at Human plasma kallikrein was 0.0056 µM. The same compound yielded an IC50 on Human KLK1 of over 40 µM. Besides, in data set [1], the concentration peaked (Cmax) at 538 ng/mL and the Tmax was 30 min.
Take `Nc1nn(Cc2ccc(Cn3ccccc3=O)cc2)cc1C(=O)NCCNc1cc(Cl)ccn1` [Example 47, 3-amino-N-{2-[(4-chloropyridin-2-yl)amino]ethyl}-1-({4-[(2-oxopyridin-1-yl)methyl]phenyl}methyl)pyrazole-4-carboxamide]: the IC50 on Human plasma kallikrein was 0.0301 µM; at Human KLK1, over 40 µM. The inhibition at 40 µM at Human FXIa was found to be 32%.
Turning to `O=C(NCCOc1cccc(Cl)c1)c1cnn(Cc2ccc(Cn3ccccc3=O)cc2)c1` [Example 36, N-[2-(3-chlorophenoxy)ethyl]-1-({4-[(2-oxopyridin-1-yl)methyl]phenyl}methyl)pyrazole-4-carboxamide], the IC50 on Human plasma kallikrein was 0.0061 µM; on Human KLK1, over 40 µM. The inhibition at 40 µM on Human FXIa is 0%.
Consider `O=C(NCCOc1cccc(Cl)c1)c1cn(Cc2ccc(N3CCCC3)nc2)nc1C(F)(F)F` [Example 28, N-[2-(3-chlorophenoxy)ethyl]-1-{[6-(pyrrolidin-1-yl)pyridin-3-yl]methyl}-3-(trifluoromethyl)pyrazole-4-carboxamide], for which the values for the IC50 at Human plasma kallikrein and on Human KLK1 were 2.39 µM and over 10 µM, respectively. At Human FXIa, the inhibition at 40 µM turned out to be 0%.
With `Nc1nn(Cc2ccc(Cn3ccccc3=O)cc2)cc1C(=O)NCCOc1cc(Cl)cc(Cl)c1` [Example 31, 3-amino-N-[2-(3,5-dichlorophenoxy)ethyl]-1-({4-[(2-oxopyridin-1-yl)methyl]phenyl}methyl)pyrazole-4-carboxamide], the 50% inhibitory concentration (IC50) on Human plasma kallikrein was 0.646 µM; at Human KLK1, over 40 µM. The inhibition at 40 µM on Human FXIa turned out to be 47%.
For `Cc1cc(C(=O)NCCOc2cccc(Cl)c2)c(C)n1Cc1csc(-c2ccccc2)n1` [Example 48, N-[2-(3-chlorophenoxy)ethyl]-2,5-dimethyl-1-[(2-phenyl-1,3-thiazol-4-yl)methyl]pyrrole-3-carboxamide], the IC50 at Human plasma kallikrein was 6.62 µM; against Human KLK1, over 10 µM. For the same compound, the “% Inhibition @ 40 μM (human FXIa)” value on Human FXIa was determined as 3%.
For `COCc1nn(Cc2ccc(Cn3ccccc3=O)cc2)cc1C(=O)NCCOc1cccc(Cl)c1` [Example 8, N-[2-(3-chlorophenoxy)ethyl]-3-(methoxymethyl)-1-({4-[(2-oxopyridin-1-yl)methyl]phenyl}methyl)pyrazole-4-carboxamide], the IC50 at Human plasma kallikrein was 0.0166 µM; at Human KLK1, over 10 µM. In addition, the inhibition at 40 µM at Human FXIa came out at 0%.
For `Cc1cc(Cl)cc(OCCNC(=O)c2cn(Cc3ccc(Cn4ccccc4=O)cc3)nc2N)c1` [Example 33, 3-amino-N-[2-(3-chloro-5-methylphenoxy)ethyl]-1-({4-[(2-oxopyridin-1-yl)methyl]phenyl}methyl)pyrazole-4-carboxamide], in that order: 0.114 µM, over 40 µM and 29%.
In the case of `Cc1cnn(-c2ccc(Cn3cc(C(=O)NCCOc4cccc(Cl)c4)c(N)n3)cn2)c1` [Example 89, 3-amino-N-[2-(3-chlorophenoxy)ethyl]-1-{[6-(4-methylpyrazol-1-yl)pyridin-3-yl]methyl}pyrazole-4-carboxamide], the IC50 at Human plasma kallikrein is 3.35 µM; against Human KLK1, over 40 µM. In addition, the inhibition at 40 µM on Human FXIa was 33%.
For `Nc1nn(Cc2ccc(CN3CCOCC3=O)cc2)cc1C(=O)NCCOc1cccc(Cl)c1` [Example 76, 3-amino-N-[2-(3-chlorophenoxy)ethyl]-1-({4-[(3-oxomorpholin-4-yl)methyl]phenyl}methyl)pyrazole-4-carboxamide], in that order: 0.227 µM, over 40 µM and 0%.
On to `Nc1nn(Cc2ccc(Cn3ccccc3=O)cc2)cc1C(=O)NCCOc1cc(Cl)ccc1Cl` [Example 34, 3-amino-N-[2-(2,5-dichlorophenoxy)ethyl]-1-({4-[(2-oxopyridin-1-yl)methyl]phenyl}methyl)pyrazole-4-carboxamide], for which the IC50 at Human plasma kallikrein is 0.0928 µM; on Human KLK1, over 40 µM. For the same compound, the inhibition at 40 µM on Human FXIa came out at 7%.
As for `CN(C(=O)CNC(=O)c1cn(Cc2ccc(Cn3ccccc3=O)cc2)nc1N)c1cccc(Cl)c1` [Example 40, 2-{[3-amino-1-({4-[(2-oxopyridin-1-yl)methyl]phenyl}methyl)pyrazol-4-yl]formamido}-N-(3-chlorophenyl)-N-methylacetamide], the IC50 on Human plasma kallikrein was 0.0126 µM; on Human KLK1, over 40 µM. For the same compound, the inhibition at 40 µM on Human FXIa came to 0%.
Regarding `CC(C)C(=O)N(C)Cc1ccc(Cn2cc(C(=O)NCCOc3cccc(Cl)c3)c(N)n2)cc1` [Example 84, 3-amino-N-[2-(3-chlorophenoxy)ethyl]-1-({4-[(N,2-dimethylpropanamido)methyl]phenyl}methyl)pyrazole-4-carboxamide], the values for the IC50 on Human plasma kallikrein and against Human KLK1 were 0.731 µM and over 40 µM, respectively. Moreover, the inhibition at 40 µM on Human FXIa was 3%.
Regarding `Nc1nn(Cc2ccc(Cn3ccccc3=O)cc2)cc1C(=O)NCCCn1cc(Cl)cn1` [Example 21, 3-amino-N-[3-(4-chloropyrazol-1-yl)propyl]-1-({4-[(2-oxopyridin-1-yl)methyl]phenyl}methyl)pyrazole-4-carboxamide], the IC50 at Human plasma kallikrein is 2.79 µM; against Human KLK1, over 40 µM. Besides, the inhibition at 40 µM on Human FXIa was found to be 56%.
